Data taken from patent US8426677B2, “Method of controlling plant growth and architecture by controlling expression of gibberellin 2-oxidase” (Academia Sinica, priority 2008, dated 2013).

Legend:
[1] = system: GA2ox6ACT mutant and wild type rice seeds/seedlings; experiment: Germination and seedling growth of rice on MS agar medium with or without GA3; assay type: in vivo, Oryza sativa
Experimental: To determine whether the dwarfism of rice mutants overexpressing GA2ox was a result of a reduction of bio-active GAs, GA2ox6ACT mutant seeds were germinated on MS agar medium with or without supplementation with 5 μM GA3.
The rice cultivar Oryza sativa L. cv Tainung 67 was used as in this study. Four T-DNA tagged rice GA2ox mutant lines were obtained from the Taiwan Rice Insertional Mutagenesis database (TRIM database, http://trim.sinica.edu.tw/). T1 mutant seeds were surface sterilized in 2.5% NaClO for 18 minutes, washed well with sterile water, placed on MS agar medium (Murashige and Skoog Basal Medium, Sigma), and incubated at 28° C. with continuous light for 15˜20 days. Wild type rice was grown under the same conditions. Plants were transplanted to pot soil and grown in a net-house during the growing season.

[2] = system: Ubi::GA2ox6 transgenic rice and wild type; experiment: GA3 treatment of wild type and Ubi::GA2ox6 transgenic rice grown in pot soil (plant height); assay type: in vivo, Oryza sativa; conditions: 10 μM GA3 at a 12-day interval for 5 weeks
[3] = system: GA2ox6ACT mutant seedlings; experiment: Tiller and adventitious root development of seedlings grown in media with or without GA3; assay type: in vivo, Oryza sativa; conditions: 5 μM GA3 in medium
Excerpt: (§1) Additionally, the inhibition of tillering by GA3 was independent of rice growth stage (see FIG. 15B). […] Both GA-treated GA2ox6ACT mutant and wild-type plants produced 2-3 times fewer tillers than mutant and wild-type plants without GA treatment (FIG. 15B).

[4] = system: wild type and GA2ox6ACT plants; experiment: Tiller number of 1-month-old plants in pot soil sprayed with GA3; assay type: in vivo, Oryza sativa; conditions: 10 μM GA3 spray once every 7 days, 3 sprays, GA2ox6ACT mutant and wild type
Excerpt: as §1

OSH1 mRNA = experiment: RT-PCR of OSH1 mRNA in embryos containing tiller buds; assay type: in vivo, Oryza sativa; conditions: 12 DAI
Experimental: (§2) To determine whether GA deficiency induced expression of OSH1 and TB1 that in turn promotes tillering and root development, GA2ox5Δ335-341ACT, GA2ox6ACT and wild type seedlings were grown in media with or without 5 μM GA3 after germination. Rice embryos containing tiller buds were collected at 12 DAI. […] It is not clear why the accumulation of OSH1 and TB1 mRNAs in the wild type was enhanced by GA3 (FIG. 14A), nevertheless, its stem became slenderer and adventitious root growth was inhibited similar as mutants (FIG. 14B).
(§3) Total RNA was purified from rice tissues using a Trizol reagent (Invitrogen). Total RNA (15 μg aliquots) was treated with 1 unit of RNase-free DNase I (Promega) in a 20 μL volume and incubated at 37° C. for 30 min. The RNA sample was then incubated at 65° C. for 10 min and placed on ice. cDNA synthesis was performed in a 20 μL mixture containing 1× reverse transcription reaction buffer (Invitrogen), 4.5 μg of purified RNA, 400 ng oligo (dT)16 primer, 5 mM DTT, 0.5 mM each dNTP, 40 units RNasin (Promega), and 200 units Superscript® III reverse transcriptase (Invitrogen). The reaction was carried out at room temperature (25° C.) for 10 min, transferred to 50° C. for 1 h, and terminated by heating at 72° C. for 15 min. The sample, which served as a cDNA stock for PCR analysis, was then stored at −70° C. […]

TB1 mRNA = experiment: RT-PCR of TB1 mRNA in embryos containing tiller buds; assay type: in vivo, Oryza sativa; conditions: 12 DAI
Experimental: as §2, §3

GA2ox6 mRNA = experiment: RT-PCR of GA2ox6 mRNA in leaves and roots of seedlings; assay type: in vivo, Oryza sativa; conditions: GA3 treatment, wild type and GA2ox6ACT mutant seedlings at 18 DAI
Experimental: Total RNA was purified from rice tissues using a Trizol reagent (Invitrogen). Total RNA (15 μg aliquots) was treated with 1 unit of RNase-free DNase I (Promega) in a 20 μL volume and incubated at 37° C. for 30 min. The RNA sample was then incubated at 65° C. for 10 min and placed on ice. cDNA synthesis was performed in a 20 μL mixture containing 1× reverse transcription reaction buffer (Invitrogen), 4.5 μg of purified RNA, 400 ng oligo (dT)16 primer, 5 mM DTT, 0.5 mM each dNTP, 40 units RNasin (Promega), and 200 units Superscript® III reverse transcriptase (Invitrogen). The reaction was carried out at room temperature (25° C.) for 10 min, transferred to 50° C. for 1 h, and terminated by heating at 72° C. for 15 min. The sample, which served as a cDNA stock for PCR analysis, was then stored at −70° C.
RT-PCR analysis was carried out in a 15 μl, solution containing 0.9 μL cDNA, 1×PCR buffer (Promega), 1.5 mM MgCl2, 0.2 mM each dNTP, 0.3 μmole each primer, 3% DMSO, and 0.6 units of Taq DNA polymerase (Promega). For GA2ox2, GA2ox7, and GA2ox8 that had very low mRNA abundance, RT-PCR analysis was carried out using KOD Hot Start DNA Polymerase (Novagen). Each 15 μL of reaction solution contained 0.9 μL cDNA, 1×PCR buffer (Novagen), 1.0 mM MgSO4, 0.2 mM each dNTP, 0.3 μmole each primer, 3% DMSO, and 1 unit of KOD Hot Start DNA Polymerase (Novagen). […]

[5] = In vitro enzyme activity of recombinant GST fusion GA2ox5 and GA2ox6 expressed in E. coli; assay type: biochemical, Oryza sativa; conditions: partially purified glutathione S-transferase fusion protein
Excerpt: GA53, a precursor of GA1, could be converted to GA97 in vitro by the Arabidopsis class C20 GA2ox through 2β-hydroxylation (Schomburg et al., 2003). The in vitro activity of rice GA2ox5 and GA2ox6 were also investigated by overexpression as fusion proteins with glutathione S-transferase in E. coli. Fusion proteins were partially purified and their enzyme activity analyzed.
Full length cDNAs of GA2ox5 and GA2ox6 in the pGEM®-T Easy cloning vector were digested with BamHI and subcloned into the same site in pGEX-5X expression vector (Amersham Biosciences). The resulting expression vectors were used to transform E. coli strain BL21-CodonPlus® (DE3) RIPL (Stratagen). A volume of 5 mL transformants pre-cultured overnight in Luria-Bertani broth (LB broth, DIFCO) was transferred to 500 mL of LB broth with 100 mgL^−1 ampicillin and incubated at 37° C. until cell density reached an OD600 around 0.6˜0.8. Isopropyl-β-D-thiogalactopyranoside (IPTG) was added to the bacteria culture to a final concentration of 0.3 mM and incubated at 28° C. for another 3 hours. Bacteria were pelleted by centrifuge and harvested, resuspended in BugBuster® Protein Extraction Reagent (Novagen) at room temperature for 10˜20 minutes, and centrifuged at […] for 30 min. The supernatant protein extracts were partially purified through GST-Bind resin (Novagen), and the purified protein extracts were stored at −80° C. […]

[6] = 5 μM GA3, GA2ox5Δ335-341ACT and GA2ox6ACT mutants

**Q.** What does the source list for `C=C1C[C@]23C[C@@]1(O)CC[C@H]2[C@@]12C=C[C@H](O)[C@@](C)(C(=O)O1)[C@H]2[C@@H]3C(=O)O` [GA3]?
**A.** Root lengths of wild type and GA2ox6ACT mutant seedlings ([1]; 5 μM GA3, 18 DAI): effectively enhanced; Height of dwarf GA2ox6ACT mutant seedlings, recovery relative to the wild type ([1]; 5 μM GA3, GA2ox6ACT mutant, 18-day-old seedlings): up to 84 % of the wild type; Plant height of 18-day-old wild-type seedlings ([1]; 5 μM GA3, wild type, 18 DAI): only slightly enhanced; Germination of GA2ox6ACT seeds ([1]; 5 μM GA3 in MS agar medium): promoted germination; Final height of Ubi::GA2ox6 transgenic plants relative to the wild type [2]: 63 % of the WT; Height of wild type plant ([2]; wild type): not altered; Root system compared to the mutant without GA treatment ([3]; GA2ox6ACT mutant): significantly reduced; Time at which the first tiller developed ([3]; GA2ox6ACT mutant (9 DAI without GA treatment)): 16 DAI; Tillers produced compared to plants without GA treatment [4]: 2-3 times fewer; OSH1 mRNA level in mutants (OSH1 mRNA; [6]): significantly reduced; OSH1 mRNA accumulation in the wild type (OSH1 mRNA; 5 μM GA3, wild type): enhanced; TB1 mRNA level in mutants (TB1 mRNA; [6]): significantly reduced; TB1 mRNA accumulation in the wild type (TB1 mRNA; 5 μM GA3, wild type): enhanced; GA2ox6 mRNA accumulation in leaves and roots (GA2ox6 mRNA): unaffected

B1: GA2ox5: rice class C20 gibberellin 2-oxidase (SEQ ID NO:2), expressed in E. coli and partially purified (protein, listed as Oryza sativa)
chain: MEEHDYDSNSNPPLMSTYKHLFVEQHRLDMDMGAIDVDECELPVIDLAGLMEAEQVCRADMVRAASEWGFFQVTNHGVPQALLRELHDAQVAVFRRPFQEKVTERLLGFSPESYRWGTPTAKCLEQLSWSEAYHIPMTTPRPSTSIRARAVIEEVSRAMYELAQKLAEILMRGLPGAGEGETMVTTREETCFLRLNRYPPCAMAMGGFGLCPHTDSDLLTIVHQQQDTVGGLQLLKGGRWVAVKPSPSTLIVNVGDLLQAWSNDVYKSVEHRVMANATLERFSMAFFLCPSYHTLIIPSSSHVHDDDAHYRSFTFGEYRKQIMEDVRSTGRKIGLHRFRTR
**Q.** With B1 as the molecule, how does the “Conversion of GA53 to GA97 (2β-hydroxylation)” value [5] read?
**A.** The value was “could convert GA53 to GA97”.

B2: GA2ox6: rice class C20 gibberellin 2-oxidase (SEQ ID NO:4), expressed in E. coli and partially purified (protein, listed as Oryza sativa)
chain: MPAFADIAIDPPLADSYRALALLRRDRDGGIAPPAVQMVGSGGAVLERDLPMVDLERLTRGGAGERKACAGAMARAASEWGFFQLTNHGVGRELMEEMRREQARLFRLPFETKEKAGLLNGSYRWGNPTATSLRHLSWSEAFHVPLASISGADCDFGDLTSLRGVMQEVAEAMSRVANTVAAALAEELTGRGGGGASAAPWFPAGCDETTCFLRLNRYPACPFAADTFGLVPHTDSDFLTVLCQDQVGGLHLMKDSRWVAVRPRPDALVVNIGDLFQAWSNNRYKSVEHKVVANAKTDRLSVAYFLCPSYDSLVGTCGEPSPYRAFTFGEYRKKVQEDVRTTGKKIGLPNFFKHSSVQ
**Q.** Which “Conversion of GA53 to GA97 (2β-hydroxylation)” value [5] does the source give for B2 here?
**A.** Its value is “could convert GA53 to GA97”.
